Patent publication US10370378B2, “Treatment of sleep disorders” (Evotec International GmbH, priority 2007, dated 2019)
“And” between values parts separate entries of the source, which are not always exact repeats. Identical values can stand only once.

What was measured:
α5β2γ2 GABAA receptors = target: T1, α5β2γ2 GABAA receptors (Rattus norvegicus, UniProt P18508+P19969); assay: Stimulation of currents elicited by GABA (EC3-5), two-electrode voltage clamp, receptors expressed in Xenopus oocytes; assay type: cell-based; settings: 1 μM; different batches of oocytes, n=5 each
T1 construct: expressed in transfected cells; host or cells: Xenopus laevis oocytes, cRNA microinjection
T1 sequence (P19969 32-464 limits assumed): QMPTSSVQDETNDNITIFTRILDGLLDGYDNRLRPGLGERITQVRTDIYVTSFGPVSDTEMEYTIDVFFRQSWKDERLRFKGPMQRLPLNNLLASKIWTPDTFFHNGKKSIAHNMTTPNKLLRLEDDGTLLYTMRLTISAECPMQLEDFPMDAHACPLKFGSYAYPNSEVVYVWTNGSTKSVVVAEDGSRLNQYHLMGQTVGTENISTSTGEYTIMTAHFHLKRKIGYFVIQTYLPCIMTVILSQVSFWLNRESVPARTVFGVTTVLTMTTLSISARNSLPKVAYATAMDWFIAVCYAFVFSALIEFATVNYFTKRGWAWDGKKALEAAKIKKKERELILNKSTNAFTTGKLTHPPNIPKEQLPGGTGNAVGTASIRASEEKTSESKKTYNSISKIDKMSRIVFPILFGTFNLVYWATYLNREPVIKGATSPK
T1 sequence (P63138 25-474 partner limits assumed): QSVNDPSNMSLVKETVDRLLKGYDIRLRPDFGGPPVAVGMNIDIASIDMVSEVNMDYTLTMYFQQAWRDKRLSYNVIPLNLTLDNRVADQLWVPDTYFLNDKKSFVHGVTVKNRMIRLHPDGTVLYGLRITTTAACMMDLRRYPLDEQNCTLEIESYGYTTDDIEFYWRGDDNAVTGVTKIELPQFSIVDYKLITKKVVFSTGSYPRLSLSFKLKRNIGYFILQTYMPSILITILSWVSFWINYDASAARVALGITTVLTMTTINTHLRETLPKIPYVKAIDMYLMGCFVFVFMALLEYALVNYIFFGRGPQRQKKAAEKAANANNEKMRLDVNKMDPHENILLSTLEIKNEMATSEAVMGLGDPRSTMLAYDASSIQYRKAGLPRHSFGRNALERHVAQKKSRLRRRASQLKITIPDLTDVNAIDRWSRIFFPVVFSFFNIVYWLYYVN
T1 sequence (P18508 39-466): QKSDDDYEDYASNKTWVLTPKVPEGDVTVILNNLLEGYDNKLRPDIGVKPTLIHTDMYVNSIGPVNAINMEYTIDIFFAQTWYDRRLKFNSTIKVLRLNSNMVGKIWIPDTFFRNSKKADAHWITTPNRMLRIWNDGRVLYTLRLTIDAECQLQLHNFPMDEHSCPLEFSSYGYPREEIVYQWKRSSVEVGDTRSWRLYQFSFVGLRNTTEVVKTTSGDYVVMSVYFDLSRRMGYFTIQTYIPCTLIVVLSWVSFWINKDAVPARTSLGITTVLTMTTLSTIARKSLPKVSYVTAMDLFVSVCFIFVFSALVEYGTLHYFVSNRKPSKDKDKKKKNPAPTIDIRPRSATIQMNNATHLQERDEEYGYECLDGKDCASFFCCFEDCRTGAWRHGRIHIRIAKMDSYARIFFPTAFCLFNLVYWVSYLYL
Excerpt: (§1) 7-Chloro-3-(5-dimethylaminomethyl-[1,2,4]oxadiazol-3-yl)-5-methyl-4,5-dihydro-imidazol[1,5,-a][1,4]benzodiazepine-6-one was used to test the effects of the compound of formula (II): […]
(§2) Similar procedures were chosen as for the investigation of other GABAA receptor subunit specific substances (e.g., Baur et al., 2005; Mol. Pharmacol. 68, 787-792).
(§3) Lobes of the ovary containing the follicles were obtained by surgical procedures from female Xenopus laevis. Follicles were singled out using a platinum loop. Fifty nL of cRNA solution at a ratio of αx:β2:γ2 of 1:1:5 (3.3-10 nM αx (x=1, 2, 3, 5); 3.3-10 nM β2; 16.7-50 nM γ2) (Boileau et al., 2002; Neuropharmacology 43, 695-700) were microinjected into Xenopus follicles. Several hours after microinjection the follicles were freed of follicular layers and adhering connective tissue by a collagenase/hypertonic shock procedure (Sigel, 1987; J. Physiol. (Land) 386, 73-90). Oocytes were kept at constant 18° C. until measurement (1-4 days) in a modified Barth solution (88 mM NaCl, 1 mM KCl, 2.4 mM NaHCO3, 10 mM Hepes-NaOH (pH 7.5), 0.82 mM MgSO4×7H2O, 0.34 mM Ca(NO3)2×4H2O, 0.41 mM CaCl2×2H2O, 100 U Penicillin/mL, 100 μg Streptomycin/mL, sterile filtered).
(§4) Currents were measured using a home-built amplifier in combination with a xy-recorder or were digitized using a MacLab/200 (AD Instruments) and stored on a computer. Xenopus oocytes were voltage clamped using the two-electrode voltage clamp technique (electrode resistance about 0.8 MΩ) at −80 mV. […]
(§5) GABA was applied for 20-50 seconds without or in combination with other drugs and a washout period of 4 minutes was allowed to ensure full recovery from desensitization, which was experimentally determined. […]
(§6) Data is given as mean±SD, except in the figures where data is shown for clarity as mean±SEM. Current stimulation was calculated as follows: stimulation (%)=((I(GABA+modulator)−I(GABA))/I(GABA))×100%, where I is the current amplitude. […]
(§7) Current stimulation by diazepam was determined in each batch of oocytes as follows. […]

α2β2γ2 GABAA receptors = target: T2, α2β2γ2 GABAA receptors (Rattus norvegicus, UniProt P18508+P23576); assay: as above; assay type: cell-based; settings: 1 μM; different batches of oocytes, n=5 each
T2 construct: expressed in transfected cells; host or cells: Xenopus laevis oocytes, cRNA microinjection
T2 sequence (P23576 29-451): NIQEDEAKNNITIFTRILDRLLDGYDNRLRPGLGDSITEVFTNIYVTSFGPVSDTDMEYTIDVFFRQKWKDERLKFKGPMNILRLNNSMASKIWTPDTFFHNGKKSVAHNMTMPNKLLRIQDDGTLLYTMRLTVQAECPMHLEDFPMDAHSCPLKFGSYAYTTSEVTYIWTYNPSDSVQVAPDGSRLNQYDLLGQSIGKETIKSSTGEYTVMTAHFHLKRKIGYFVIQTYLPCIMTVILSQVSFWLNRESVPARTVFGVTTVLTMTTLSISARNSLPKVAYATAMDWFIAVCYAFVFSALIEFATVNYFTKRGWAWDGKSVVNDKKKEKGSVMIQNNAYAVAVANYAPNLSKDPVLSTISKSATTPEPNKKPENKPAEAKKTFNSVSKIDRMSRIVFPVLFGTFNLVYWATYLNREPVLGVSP
T2 sequence (P63138 25-474 partner limits assumed): as the sequence (P63138 25-474 partner limits assumed) above
T2 sequence (P18508 39-466): as the sequence (P18508 39-466) above
Excerpt: as §1, §2, §3, §4, §5, §6, §7

α3β2γ2 GABAA receptors = target: T3, α3β2γ2 GABAA receptors (Rattus norvegicus, UniProt P18508+P20236); assay: as above; assay type: cell-based; settings: 1 μM; different batches of oocytes, n=5 each
T3 construct: expressed in transfected cells; host or cells: Xenopus laevis oocytes, cRNA microinjection
T3 sequence (P20236 29-493): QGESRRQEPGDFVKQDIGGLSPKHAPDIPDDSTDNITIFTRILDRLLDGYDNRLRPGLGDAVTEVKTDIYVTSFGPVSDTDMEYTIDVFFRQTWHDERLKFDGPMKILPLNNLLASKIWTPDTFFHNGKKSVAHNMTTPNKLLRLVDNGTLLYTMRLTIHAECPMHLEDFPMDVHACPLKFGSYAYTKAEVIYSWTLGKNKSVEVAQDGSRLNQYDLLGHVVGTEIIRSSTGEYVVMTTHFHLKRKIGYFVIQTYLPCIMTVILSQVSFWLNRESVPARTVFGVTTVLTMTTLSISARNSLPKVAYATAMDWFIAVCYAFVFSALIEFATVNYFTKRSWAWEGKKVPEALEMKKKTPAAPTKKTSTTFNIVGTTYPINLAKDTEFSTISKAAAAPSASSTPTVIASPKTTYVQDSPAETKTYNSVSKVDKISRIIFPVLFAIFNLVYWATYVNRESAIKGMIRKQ
T3 sequence (P63138 25-474 partner limits assumed): as the sequence (P63138 25-474 partner limits assumed) above
T3 sequence (P18508 39-466): as the sequence (P18508 39-466) above
Excerpt: as §1, §2, §3, §4, §5, §6, §7

α1β2γ2 GABAA receptors = target: T4, α1β2γ2 GABAA receptors (Rattus norvegicus, UniProt P18508+P62813); assay: as above; assay type: cell-based
T4 construct: expressed in transfected cells; host or cells: Xenopus laevis oocytes, cRNA microinjection
T4 sequence (P62813 28-455): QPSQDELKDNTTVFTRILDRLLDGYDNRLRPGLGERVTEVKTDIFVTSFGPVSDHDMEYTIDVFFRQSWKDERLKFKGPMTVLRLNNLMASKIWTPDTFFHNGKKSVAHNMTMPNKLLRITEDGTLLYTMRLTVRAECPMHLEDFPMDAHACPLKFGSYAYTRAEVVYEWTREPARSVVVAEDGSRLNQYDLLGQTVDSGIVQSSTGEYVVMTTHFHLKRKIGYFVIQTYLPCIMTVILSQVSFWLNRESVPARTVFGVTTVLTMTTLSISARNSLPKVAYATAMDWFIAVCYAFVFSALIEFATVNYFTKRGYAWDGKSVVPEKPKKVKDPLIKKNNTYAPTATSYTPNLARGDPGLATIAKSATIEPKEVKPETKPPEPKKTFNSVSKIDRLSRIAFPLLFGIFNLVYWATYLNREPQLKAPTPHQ
T4 sequence (P63138 25-474 partner limits assumed): as the sequence (P63138 25-474 partner limits assumed) above
T4 sequence (P18508 39-466): as the sequence (P18508 39-466) above
Excerpt: as §1, §2, §3
Currents were measured using a home-built amplifier in combination with a xy-recorder or were digitized using a MacLab/200 (AD Instruments) and stored on a computer. Xenopus oocytes were voltage clamped using the two-electrode voltage clamp technique (electrode resistance about 0.8 MΩ) at −80 mV. The medium contained 90 mM NaCl, 1 mM KCl, 1 mM MgCl2, 1 mM CaCl2, 10 mM Na-Hepes (pH 7.4) and 0.5% DMSO.
GABA was applied for 20-50 seconds without or in combination with other drugs and a washout period of 4 minutes was allowed to ensure full recovery from desensitization, which was experimentally determined. The perfusion solution (6 mL/min) was applied through a glass capillary with an inner diameter of 1.35 mm, the mouth of which was placed about 0.4 mm from the surface of the oocyte. The rate of solution change under our conditions has been estimated 70% within less than 0.5 s (Sigel et al., 1990; Neuron 5, 703-711). The entire perfusion system and the assay chamber were cleaned between drug applications by washing with DMSO.
Data is given as mean±SD, except in the figures where data is shown for clarity as mean±SEM. Current stimulation was calculated as follows: stimulation (%)=((I(GABA+modulator)−I(GABA))/I(GABA))×100%, where I is the current amplitude. Where indicated, the stimulation was standardized to the stimulation by 1 μM diazepam (100%). To obtain FIGS. 1-4, values for current stimulation obtained at a given concentration of modulator at a given subunit combination were averaged. The data points were fitted with the equation stimulation=efficacy/(1+(potency/concentration of modulator)). The values given in the Tables (Summary) are obtained by fitting individual curves and subsequently averaging efficacy and potency. […]
GABA was then applied in combination with various concentrations of the compound of formula (II) between 0.3 nM and 3,000 nM to produce a cumulative concentration response curve. […] In each batch of oocytes the stimulation by 1 μM diazepam was determined in five oocytes, extent of stimulation averaged and defined as 100%. Where indicated, stimulation by the compound of formula (II) in each batch of oocytes was expressed as a percentage of this value in the corresponding batch. […]

[1] = elderly; cited from earlier work
GABAA receptors = settings: 20 mg, PET, in man; cited from earlier work

In the case of `CN1C(=O)CN=C(c2ccccc2)c2cc(Cl)ccc21` [diazepam], the Current stimulation (α5β2γ2 GABAA receptors) is reported as 237±97% and 160±4%, the Current stimulation (α2β2γ2 GABAA receptors) is reported as 264±61% and 280±71% and 318±62% and the Current stimulation (α3β2γ2 GABAA receptors) is reported as 417±85% and 417±144%. For the same compound, the Current stimulation (α1β2γ2 GABAA receptors; 1 μM, different batches of oocytes, n=5 each) was 223±28% and 178±20%.

For `CN1CCN(C(=O)O[C@H]2c3nccnc3C(=O)N2c2ccc(Cl)cn2)CC1` [eszopiclone], the half-life [1] is listed as 9 h.

In the case of `Cc1ccc(-c2nc3ccc(C)cn3c2CC(=O)N(C)C)cc1` [zolpidem], the “Receptor subtype affinity in comparison to α2β2γ2, α3β2γ2 and α5β2γ2” value (α1β2γ2 GABAA receptors) is listed as “higher affinity at α1β2γ2 GABAA receptors”, the “Intrinsic activity / type of allosteric modulation” value (α1β2γ2 GABAA receptors; GABAA receptor benzodiazepine site) is listed as “full agonist” and the receptor occupancy (GABAA receptors) is listed as “about 20%”.
